Data taken from ChEMBL document CHEMBL4118148, “Design, synthesis and cardiovascular evaluation of some aminoisopropanoloxy derivatives of xanthone” (Bioorg Med Chem, 2018).
pIC50: −log10 of the molar value. Active and inactive are the calls of the source. The rule behind the calls is not given here.

Experiments:
[1] = (§1) Inhibition of voltage gated calcium channel in Wistar rat aorta assessed as relaxation of KCl-precontracted aortic rings by measuring reduction in calcium entry in presence of phentolamine
Rattus norvegicus [2] = species on record: Rattus norvegicus; test: as §1
Rattus norvegicus [3] = test: Hypotensive activity in normotensive Wistar rat assessed as systolic blood pressure at 2.5 mg/kg, iv measured after 5 mins (reference value: 148.5 +/- 2.6 mmHg); assay type: functional
Rattus norvegicus [4] = test: Hypotensive activity in normotensive Wistar rat assessed as diastolic blood pressure at 2.5 mg/kg, iv measured after 5 mins (reference value: 116.2 +/- 1.2 mmHg); assay type: functional
Rattus norvegicus [5] = test: Hypotensive activity in normotensive Wistar rat assessed as systolic blood pressure at 2.5 mg/kg, iv measured after 10 mins (reference value: 148.5 +/- 2.6 mmHg); assay type: functional
Rattus norvegicus [6] = test: Hypotensive activity in normotensive Wistar rat assessed as diastolic blood pressure at 2.5 mg/kg, iv measured after 10 mins (reference value: 116.2 +/- 1.2 mmHg); assay type: functional
Rattus norvegicus [7] = test: Hypotensive activity in normotensive Wistar rat assessed as systolic blood pressure at 2.5 mg/kg, iv measured after 20 mins (reference value: 148.5 +/- 2.6 mmHg); assay type: functional
Rattus norvegicus [8] = test: Hypotensive activity in normotensive Wistar rat assessed as diastolic blood pressure at 2.5 mg/kg, iv measured after 20 mins (reference value: 116.2 +/- 1.2 mmHg); assay type: functional
Rattus norvegicus [9] = test: Hypotensive activity in normotensive Wistar rat assessed as systolic blood pressure at 2.5 mg/kg, iv measured after 30 mins (reference value: 148.5 +/- 2.6 mmHg); assay type: functional
Rattus norvegicus [10] = test: Hypotensive activity in normotensive Wistar rat assessed as diastolic blood pressure at 2.5 mg/kg, iv measured after 30 mins (reference value: 116.2 +/- 1.2 mmHg); assay type: functional
Rattus norvegicus [11] = test: Hypotensive activity in normotensive Wistar rat assessed as diastolic blood pressure at 2.5 mg/kg, iv measured after 60 mins (reference value: 116.2 +/- 1.2 mmHg); assay type: functional
Rattus norvegicus [12] = test: Hypotensive activity in normotensive Wistar rat assessed as reduction in systolic blood pressure at 2.5 mg/kg, iv measured after 5 to 10 mins relative to control; assay type: functional; parameters: scale not given: the % may be the effect or the level left
Blood = test: Anti-aggregative activity in Wistar rat whole blood assessed as inhibition of collagen-induced aggregation up to 100 uM preincubated for 3 mins followed by collagen induction measured for 6 mins; assay type: functional, tissue-based
[13] = target: Beta-1 adrenergic receptor (Rattus norvegicus) (UniProt P18090); test: Displacement of [3H]-CGP-12177 from adrenergic beta1 receptor in Wistar rat cortex at 10^-5 M incubated for 60 mins by microbeta liquid scintillation counting analysis
Beta-1 adrenergic receptor (Rattus norvegicus), sequence (P18090 whole entry, looked up): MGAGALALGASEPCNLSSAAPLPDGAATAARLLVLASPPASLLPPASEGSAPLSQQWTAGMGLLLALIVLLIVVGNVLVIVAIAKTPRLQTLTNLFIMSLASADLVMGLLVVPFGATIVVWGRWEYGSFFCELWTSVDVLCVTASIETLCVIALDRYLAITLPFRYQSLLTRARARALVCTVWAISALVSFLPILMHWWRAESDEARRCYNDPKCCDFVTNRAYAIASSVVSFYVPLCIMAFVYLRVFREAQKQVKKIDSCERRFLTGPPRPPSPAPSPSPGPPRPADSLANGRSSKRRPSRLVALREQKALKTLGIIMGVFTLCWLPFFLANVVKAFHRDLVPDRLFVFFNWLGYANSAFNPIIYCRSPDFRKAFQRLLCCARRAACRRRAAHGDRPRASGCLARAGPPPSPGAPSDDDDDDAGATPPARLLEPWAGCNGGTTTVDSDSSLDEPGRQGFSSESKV

Rattus norvegicus [14] = test: Hypotensive activity in normotensive Wistar rat assessed as reduction in diastolic blood pressure at 1 mg/kg, iv measured over 40th min relative to control; assay type: functional; parameters: scale not given: the % may be the effect or the level left
Rattus norvegicus [15] = test: Hypotensive activity in normotensive Wistar rat assessed as reduction in systolic blood pressure at 0.5 mg/kg, iv measured over 30 mins relative to control; assay type: functional; parameters: scale not given: the % may be the effect or the level left
Rattus norvegicus [16] = test: Hypotensive activity in normotensive Wistar rat assessed as reduction in diastolic blood pressure at 0.5 mg/kg, iv measured over 30 mins relative to control; assay type: functional; parameters: scale not given: the % may be the effect or the level left
Rattus norvegicus [17] = test: Hypotensive activity in normotensive Wistar rat assessed as systolic blood pressure at 0.5 mg/kg, iv measured after 5 mins (reference value: 147.7 +/- 5.9 mmHg); assay type: functional
Rattus norvegicus [18] = test: Hypotensive activity in normotensive Wistar rat assessed as systolic blood pressure at 0.5 mg/kg, iv measured after 5 mins (reference value: 116 +/- 4.6 mmHg); assay type: functional
Rattus norvegicus [19] = test: Hypotensive activity in normotensive Wistar rat assessed as systolic blood pressure at 0.5 mg/kg, iv measured after 10 mins (reference value: 116 +/- 4.6 mmHg); assay type: functional
Rattus norvegicus [20] = test: Hypotensive activity in normotensive Wistar rat assessed as systolic blood pressure at 0.5 mg/kg, iv measured after 20 mins (reference value: 147.7 +/- 5.9 mmHg); assay type: functional
Rattus norvegicus [21] = test: Hypotensive activity in normotensive Wistar rat assessed as systolic blood pressure at 0.5 mg/kg, iv measured after 20 mins (reference value: 116 +/- 4.6 mmHg); assay type: functional
Rattus norvegicus [22] = test: Hypotensive activity in normotensive Wistar rat assessed as systolic blood pressure at 0.5 mg/kg, iv measured after 30 mins (reference value: 147.7 +/- 5.9 mmHg); assay type: functional
Rattus norvegicus [23] = test: Hypotensive activity in normotensive Wistar rat assessed as systolic blood pressure at 0.5 mg/kg, iv measured after 30 mins (reference value: 116 +/- 4.6 mmHg); assay type: functional
Rattus norvegicus [24] = test: Hypotensive activity in normotensive Wistar rat assessed as systolic blood pressure at 0.5 mg/kg, iv measured after 60 mins (reference value: 147.7 +/- 5.9 mmHg); assay type: functional
Rattus norvegicus [25] = test: Hypotensive activity in normotensive Wistar rat assessed as reduction in diastolic blood pressure at 1 mg/kg, iv measured over 10 mins relative to control; assay type: functional; parameters: scale not given: the % may be the effect or the level left
Rattus norvegicus [26] = test: In vivo inhibition of beta adrenoceptor in Wistar rat assessed as reduction in isoprenaline-induced tachycardia at 1 mg/kg, iv administered as single dose 10 mins prior to isoprenaline injection; assay type: functional, organism-based
Rattus norvegicus [27] = test: Hypotensive activity in normotensive Wistar rat assessed as reduction in systolic blood pressure at 1 mg/kg, iv measured after 30 to 60 mins relative to control; assay type: functional; parameters: scale not given: the % may be the effect or the level left
Rattus norvegicus [28] = test: Hypotensive activity in normotensive Wistar rat assessed as reduction in diastolic blood pressure at 1 mg/kg, iv measured after 30 to 60 mins relative to control; assay type: functional; parameters: scale not given: the % may be the effect or the level left
Rattus norvegicus [29] = test: Cardiotoxicity in Wistar rat assessed as effect on heart rate at 1 mg/kg, iv measured after 1 min (reference value: 320.6 +/- 8.1 bpm); assay type: toxicity, organism-based; details: in vivo
Rattus norvegicus [30] = test: Cardiotoxicity in Wistar rat assessed as effect on QRS interval time at 1 mg/kg, iv measured after 1 min (reference value: 19.4 +/- 0.9 ms); assay type: toxicity, organism-based; details: in vivo
Rattus norvegicus [31] = test: Cardiotoxicity in Wistar rat assessed as effect on QT interval time at 1 mg/kg, iv measured after 1 min (reference value: 59.2 +/- 0.5 ms); assay type: toxicity, organism-based; details: in vivo
Rattus norvegicus [32] = test: Cardiotoxicity in Wistar rat assessed as effect on heart rate at 1 mg/kg, iv measured after 5 mins (reference value: 320.6 +/- 8.1 bpm); assay type: toxicity, organism-based; details: in vivo
Rattus norvegicus [33] = test: Cardiotoxicity in Wistar rat assessed as effect on QT interval time at 1 mg/kg, iv measured after 5 mins (reference value: 59.2 +/- 0.5 ms); assay type: toxicity, organism-based; details: in vivo
Rattus norvegicus [34] = test: Cardiotoxicity in Wistar rat assessed as effect on QTC interval time at 1 mg/kg, iv measured after 5 mins (reference value: 137.7 +/- 2 ms); assay type: toxicity, organism-based; details: in vivo
Rattus norvegicus [35] = test: Cardiotoxicity in Wistar rat assessed as effect on PQ interval time at 1 mg/kg, iv measured after 15 mins (reference value: 56.8 +/- 1.8 ms); assay type: toxicity, organism-based; details: in vivo, 0.25 h
Rattus norvegicus [36] = test: Cardiotoxicity in Wistar rat assessed as effect on QTC interval time at 1 mg/kg, iv measured after 15 mins (reference value: 137.7 +/- 2 ms); assay type: toxicity, organism-based; details: in vivo, 0.25 h
Rattus norvegicus [37] = test: Hypotensive activity in normotensive Wistar rat assessed as reduction in systolic blood pressure administered iv measured after 60 mins; assay type: functional; parameters: scale not given: the % may be the effect or the level left

For COc1ccc(CCNCC(O)COc2cccc3c(=O)c4ccccc4oc23)cc1OC.Cl (racemic), the pIC50 [1] was 4.99, the inhibition (Rattus norvegicus [2]) was “Dose-dependent effect” and the inhibition (Rattus norvegicus [2]; concentration not given here) was 95%. For the same compound, the Activity (Rattus norvegicus [3]) was 143.7 mmHg, the Activity (Rattus norvegicus [4]) was 107 mmHg and the Activity (Rattus norvegicus [5]) was 135 mmHg. For the same compound, the Activity (Rattus norvegicus [6]) was 101.5 mmHg, the Activity (Rattus norvegicus [7]) was 132 mmHg and the Activity (Rattus norvegicus [8]) was 99.7 mmHg. The Activity (Rattus norvegicus [9]) was 130.7 mmHg, the Activity (Rattus norvegicus [10]) was 97.7 mmHg and the Activity (Rattus norvegicus [11]) was 100.7 mmHg. For the same compound, the Activity (Rattus norvegicus [12]) was 9 - 12% and the inhibition (Blood) was “inactive”.

With Cl.O=c1c2ccccc2oc2cc(OCC(O)CN3CCN(c4ccccn4)CC3)ccc12 (racemic) the Activity [13] was “inactive” and the Activity (Rattus norvegicus [14]) was 8 - 10%.

For Cl.O=c1c2ccccc2oc2c(OCC(O)CN3CCN(c4ccccn4)CC3)cccc12 (racemic), the Activity (Rattus norvegicus [15]) was 7 - 11%, the Activity (Rattus norvegicus [16]) was 5 - 9% and the Activity (Rattus norvegicus [17]) was 146.7 mmHg. It also gave an Activity (Rattus norvegicus [18]) of 116.3 mmHg, an Activity (Rattus norvegicus [19]) of 114.3 mmHg and an Activity (Rattus norvegicus [20]) of 143 mmHg. For the same compound, the Activity (Rattus norvegicus [21]) was 114 mmHg, the Activity (Rattus norvegicus [22]) was 137.7 mmHg and the Activity (Rattus norvegicus [23]) was 110.3 mmHg. The Activity (Rattus norvegicus [24]) was 132 mmHg.

COc1ccccc1CCNCC(O)COc1cccc2c(=O)c3ccccc3oc12.Cl (racemic) gave an Activity (Rattus norvegicus [25]) of 7%.

With CC(C)(C)NCC(O)COc1cccc2c(=O)c3ccccc3oc12.Cl (racemic) the inhibition (Rattus norvegicus [26]) was “Active”, the Activity (Rattus norvegicus [27]) was 10% and the Activity (Rattus norvegicus [28]) was 10 - 13%. It also gave an Activity (Rattus norvegicus [29]) of 307.2 bpm, a Time (Rattus norvegicus [30]) of 19.6 ms and a Time (Rattus norvegicus [31]) of 59.2 ms. For the same compound, the Activity (Rattus norvegicus [32]) was 295.6 bpm, the Time (Rattus norvegicus [33]) was 59.2 ms and the Time (Rattus norvegicus [34]) was 132.2 ms. The Time (Rattus norvegicus [35]) was 58 ms and the Time (Rattus norvegicus [36]) was 131 ms.

COc1ccccc1CNCC(O)COc1cccc2c(=O)c3ccccc3oc12.Cl (racemic) gave an Activity (Rattus norvegicus [37]) of 7%.
